Test results taken from US20140341916A1, “THERAPEUTIC COMBINATIONS AND METHODS OF TREATING MELANOMA” (Genentech, Inc., priority 2011, published 2014).

Experiments:
ETBR total protein = ETBR total protein in melanoma cell lines, Western blot; assay type: cell-based, human; details: 24 h
Description: Melanoma cell lines UACC-257X2.2, A2058, COLO 829, IPC-298 (ATCC) were treated with a BRAF inhibitor drug (“BRAFi”), specifically RG7204 at varying concentrations by adding the appropriate drug volume to cells in culture for 24 h on four-well dishes.
To test whether the increase in ETBR transcripts due to BRAFi treatment also results in any changes in ETBR total protein levels, Western blot experiments were performed on the same cell lines treated with BRAFi RG7204 as described above. For Western blotting, the following reagents were used: for detection of proteins: an anti-ETBR in-house generated monoclonal antibody 1H1.8.5, anti-Phospho-p44/42 MAPK (Erk1/2) (Thr202/Tyr204) antibody (9101, Cell Signaling Technology), anti-p44/42 MAPK (Erk1/2) antibody (9102, Cell Signaling Technology) and as controls, a rabbit polyclonal anti-GAPDH (glyceraldehyde-3-phosphate dehydrogenase) antibody (PA1-987; Affinity Bioreagents) and mouse monoclonal anti-β-Tubulin antibody (556321, BD Pharmingen). The results for UACC-257X2.2 are shown in FIG. 4B, the results for A2058 are shown in FIG. 8B, the results for COLO 829 are shown in FIG. 6B and the results for IPC-298 are shown in FIG. 10.
Melanoma cell lines A2058, COLO 829, SK23-MEL and IPC-298 (ATCC) were treated with a MEK inhibitor drug (“MEKi-973” or “MEKi-623”), at varying concentrations (0 μM, 0.01 μM, 0.1 μM or 1 μM) by adding the appropriate drug volume to cells in culture for 24 h on four-well dishes.
To test whether the increase in ETBR transcripts due to MEKi treatment also results in any changes in ETBR total protein levels, Western blot experiments were performed on cell lines COLO829 (BRAF^V600E), A2058 (BRAF^V600E), SK23-MEL (BRAF^WT/RAS^WT), or IPC-298 (BRAF^WT/RAS^[…]) which were treated with MEKi-973 as described above. For Western blotting, the following reagents were used: for detection of proteins: an anti-ETBR in-house generated monoclonal antibody 1H1.8.5, anti-Phospho-p44/42 MAPK (Erk1/2) (Thr202/Tyr204) antibody (9101, Cell Signaling Technology), anti-p44/42 MAPK (Erk1/2) antibody (9102, Cell Signaling Technology) and as controls, a rabbit polyclonal anti-GAPDH (glyceraldehyde-3-phosphate dehydrogenase) antibody (PA1-987; Affinity Bioreagents) and mouse monoclonal anti-β-Tubulin antibody (556321, BD Pharmingen). The results for A2058 are shown in FIG. 15A treated with MEKi-623 and 15B treated with MEKi-973, the results for COLO 829 are shown in FIG. 12A treated with MEKi-623 and 12B treated with MEKi-973, the results for SK23-MEL are shown in FIG. 19A treated with MEKi-623 and 19B treated with MEKi-973, and the results for IPC-298 are shown in FIG. 22A treated with MEKi-623 and 22B treated with MEKi-973.

A2058 melanoma xenograft = experiment: In vivo efficacy, subcutaneous melanoma xenograft, tumor volume / % TGI; parameters: species or system mice; details: for % TGI Single Agent BRAFi vs. control: A2058
Description: Next, efficacy studies were performed using the melanoma cells lines in the xenografts mouse models described above. All studies were conducted in accordance with the Guide for the Care and Use of Laboratory Animals (Ref: Institute of Laboratory Animal Resources (NIH publication no. 85-23), Washington, D.C.: National Academies Press; 1996). 10- to 14-week-old female CRL Nu/Nu or NCr nude mice from Charles River Laboratories were inoculated subcutaneously in the dorsal right flank with either 5×10^6 UACC-257X2.2 cells in HBSS with Matrigel or 5×10^6 A2058 cells in HBSS with Matrigel. When tumor volumes reached approximately 200 mm^3 (day 0), animals were randomized into groups of 10 each.
For single agent efficacy studies, the anti-ETBR ADC candidate Hu5E9v1-ADC was administered as a single intravenous (IV) injection on day 0 at 1 mpk, 3 mpk, or 6 mpk (mg/kg). A control ADC antibody and vehicle control were also administered. Average tumor volumes with standard deviations were determined from 10 animals per group. Tumor volumes were measured twice per week until study end.
The average tumor volumes were determined from 10 animals per group. Tumor volumes were measured twice per week until study end. Tumor volumes were measured in two dimensions (length and width) using UltraCal IV calipers (Model 54 10 111, Fred V. Fowler Company; Newton, Mass.). The following formula was used with Excel, version 12.2.8 (Microsoft; Redmond, Wash.) to calculate tumor volume: Tumor Volume (mm3)=[…]
To analyze the repeated measurement of tumor volumes from the same animals over time, a mixed-modeling Linear Mixed Effects (LME) approach was used (Pinheiro et al. 2009). This approach can address both repeated measurements and a modest drop-out rate due to non-treatment-related termination of animals prior to study end. Cubic regression splines were used to fit a non-linear profile to the time courses of log 2 tumor volume at each dose level. These non-linear profiles were then related to dose within the mixed model. Tumor growth inhibition (TGI) as a percentage of vehicle was calculated as percent area under the fitted curve (AUC) per day in relation to the vehicle, using the following formula:
Using this formula, a TGI value of 100% indicates tumor stasis, of >1% but <100% indicates tumor growth delay, and of >100% indicates tumor regression. To get uncertainty intervals (UIs) for % TGI, the fitted curve and the fitted covariance matrix were used to generate a random sample as an approximation to the distribution of % TGI. The random sample is composed of 1000 simulated realizations of the fitted-mixed model, where the % TGI has been recalculated for each realization. Here, in the reported UI is the value for which 95% of the time, the recalculated values of % TGI will fall in this region given the fitted model. The 2.5 and 97.5 percentiles of the simulated distribution were used as the […] UIs.
Tumors were grown to an average size of approximately 200 mm^3, whereupon animals were randomized into groups of 10 each. […] A single dose of Hu5E9v1-ADC at either 3 mpk or 6 mpk or control, a histidine buffer #8, was administered intraveneously into the tail vein on day 1 (after three doses of RG7204).
To do this, the in vivo efficacy for various combinations of Hu5E9v1-ADC and MEKi-623 and/or MEKi-973 were evaluated against A2058 and SK-MEL-23 and IPC-298 melanoma in vivo models, performed as described above in Example 4. An appropriate methylcellulose tween vehicle control (0.5% methylcellulose, 0.2% Tween-80 (MCT) or MEK inhibitor at doses of 1 mpk, 3 mpk or 7.5 mpk were administered orally once a day×21 days beginning on study Day 0. A single 3 mpk or 6 mpk dose of Hu5E9v1-ADC or control, a histidine buffer #8, was administered intraveneously (after two doses of a MEK inhibitor) via tail vein at study Day 1.

CCCS(=O)(=O)Nc1ccc(F)c(C(=O)c2c[nH]c3ncc(-c4ccc(Cl)cc4)cc23)c1F [RG7204, propane-1-sulfonic acid {3-[5-(4-chlorophenyl)-1H-pyrrolo[2,3-b]pyridine-3-carbonyl]-2,4-difluoro-phenyl}-amide]
ETBR total protein level vs untreated control cells (ETBR total protein; A2058 cells (BRAF V600E)): appears to increase the ETBR total protein levels | ETBR total protein level vs untreated control cells (ETBR total protein; COLO 829 cells (BRAF V600E)): appears to increase the ETBR total protein levels | ETBR total protein level vs untreated control cells (ETBR total protein; IPC-298 cells (BRAF wild-type, RAS mutant)): does not appear to increase ETBR levels | ETBR total protein level vs untreated control cells (ETBR total protein; UACC-257X2.2 cells): appears to increase the ETBR total protein levels | single agent efficacy (A2058 melanoma xenograft; 10 mg/kg RG7204 alone, orally twice a day 21 days): did not show single agent efficacy | % TGI Single Agent BRAFi vs. control (A2058 melanoma xenograft; BRAFi Qdx21 10 mg/kg): 13% | % TGI Single Agent BRAFi vs. control (A2058 melanoma xenograft; BRAFi Qdx21 30 mg/kg): 38%
